Patent US20250136556A1, “NOVEL MODULATORS OF THE ARYL HYDROCARBON RECEPTOR AND METHODS OF USE THEREOF” (Allianthera (Suzhou) Biopharmaceutical Co., Ltd., priority 2021, published 2025)
pEC50: −log10 of the molar value.

These molecules were tested against T1, Human Aryl Hydrocarbon Receptor (AHR) (Homo sapiens, UniProt P35869) (assay: AHR agonist reporter assay in human cell line (INDIGO luciferase reporter)). Settings: reporter cells, 24 hours incubation, second line of cell; read-out: AHR abEC50.
T1 construct: purchased INDIGO Bioscience IB06001-32; host or cells: AHR Reporter Cell (proprietary kit cells)
T1 sequence (P35869 11-848): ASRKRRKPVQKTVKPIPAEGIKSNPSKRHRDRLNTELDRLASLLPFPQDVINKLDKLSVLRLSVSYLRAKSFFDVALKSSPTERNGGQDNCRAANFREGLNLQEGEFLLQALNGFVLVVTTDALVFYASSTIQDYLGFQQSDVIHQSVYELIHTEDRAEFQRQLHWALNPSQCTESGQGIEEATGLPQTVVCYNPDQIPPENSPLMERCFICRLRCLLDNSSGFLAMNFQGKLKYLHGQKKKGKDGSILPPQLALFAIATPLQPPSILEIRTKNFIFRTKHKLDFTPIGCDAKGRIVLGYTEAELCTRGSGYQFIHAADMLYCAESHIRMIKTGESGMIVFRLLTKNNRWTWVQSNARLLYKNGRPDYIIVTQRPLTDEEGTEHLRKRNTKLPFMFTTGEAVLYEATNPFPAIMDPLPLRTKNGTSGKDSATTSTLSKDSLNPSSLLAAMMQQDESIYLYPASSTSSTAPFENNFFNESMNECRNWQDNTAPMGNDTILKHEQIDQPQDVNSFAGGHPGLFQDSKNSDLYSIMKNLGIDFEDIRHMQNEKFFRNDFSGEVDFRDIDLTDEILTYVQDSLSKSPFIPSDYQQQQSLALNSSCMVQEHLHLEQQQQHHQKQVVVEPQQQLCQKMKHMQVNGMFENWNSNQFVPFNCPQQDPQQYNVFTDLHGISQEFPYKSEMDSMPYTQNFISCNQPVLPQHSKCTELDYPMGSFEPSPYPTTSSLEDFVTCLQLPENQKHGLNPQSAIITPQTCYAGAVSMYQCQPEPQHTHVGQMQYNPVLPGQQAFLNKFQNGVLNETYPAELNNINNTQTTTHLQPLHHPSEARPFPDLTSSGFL
Assay type: cell-based
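Also: firefly luciferase luminescence read on a plate reader, values normalized against positive and negative controls.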
Method: The AHR reporter assay was performed following the protocol of the Human Aryl Hydrocarbon Receptor (AHR) Reporter Assay System (INDIGO Bioscience, #IB06001-32). AHR Reporter Cell was thawed and pre-incubated in Cell Recovery Medium (CRM) for 6 hours. […] Following 24 hours incubation, the media was removed and Luciferase Detection Reagent (LDR) added. The firefly luciferase activity was quantified using a plate reader. Results were normalized by positive and negative controls.

SMILES | pEC50
CC(C)c1ncc(-c2cc3cnccc3cc2F)cc1O [Compound 85] | < 7.00
CC(C)c1c(O)cc(-c2ccc3nccc(C#N)c3c2)cc1O [Compound 30] | < 7.00
CC(C)c1c(O)cc(-c2cc(C(F)(F)F)c3cc(F)ccc3n2)cc1O [Compound 1] | 7.60
CC(C)c1c(O)cc(-c2cccc3cc(F)c(O)nc23)cc1O [Compound 5] | 7.10
COc1ccc2ccc(-c3cc(O)c(C(C)C)c(O)c3)cc2n1 [Compound 27] | < 7.00
CC(C)c1ncc(-c2ccnc3ccc(F)cc23)cc1O [Compound 55] | < 7.00
CC(C)c1ncc(-c2cnc3ccccc3c2)cc1N [Compound 120, 2-isopropyl-5-(quinolin-3-yl) pyridin-3-amine] | < 7.00
CC(C)c1c(O)cc(-c2ccc3nccc(F)c3c2)cc1O [Compound 8] | < 7.00
CC(C)c1ncc(-c2cc3ccccc3nc2C#N)cc1O [Compound 79] | < 7.00
CC(C)c1ncc(-c2cncc3ccc(F)cc23)cc1O [Compound 83] | < 7.00
CC(C)c1ncc(-c2cc(F)c3cnc(N)nc3c2)cc1O [Compound 90] | < 7.00
CC(C)c1ncc(-c2nc3ccccc3[nH]2)cc1O [Compound 101] | 7.03
CC(C)c1c(O)cc(-c2ccnc3c(Cl)cccc23)cc1O [Compound 17] | < 7.00
CC(C)c1c(O)cc(-c2ccc(F)c3ccc(C(F)(F)F)nc23)cc1O [Compound 13] | < 7.00
CC(C)c1ncc(-c2nc3ccccc3[nH]2)cc1N [Compound 134] | 7.00
CC(=O)c1c(O)cc(/C=C/c2ccccc2)cc1O [Compound 108] | 6.84
CC(C)c1ncc(-c2ccc3cc(F)ccc3n2)cc1O [Compound 60] | < 7.00
CC(C)c1ncc(-c2ccc3nccc(C#N)c3c2)cc1O [Compound 81] | < 7.00
COc1cc(-c2cc(O)c(C(C)C)c(O)c2)cc2cccnc12 [Compound 18] | < 7.00
CC(C)c1ncc(-c2cccc3ncccc23)cc1O [Compound 71] | < 7.00
CC(C)c1c(O)cc(-c2c(Cl)cc3c(O)ncnc3c2F)cc1O [Compound 38] | < 7.00
CC(C)c1ncc(-c2ccc(F)c3ccc(C(F)(F)F)nc23)cc1O [Compound 64] | < 7.00
Cc1ccnc2cc(-c3cnc(C(C)C)c(O)c3)ccc12 [Compound 73] | < 7.00
CC(C)c1c(O)cc(-c2ccc3ncnc(N)c3c2)cc1O [Compound 42] | < 7.00
CC(C)c1c(O)cc(-c2ccnc3c(F)cccc23)cc1O [Compound 3] | < 7.00
CC(C)c1c(O)cc(-c2cc(F)c3ncccc3c2)cc1O [Compound 6] | 6.96
CC(C)c1c(O)cc(-c2cnc3cccc(O)c3c2)cc1O [Compound 23] | < 7.00

SMILES | pEC50
CC(C)c1ncc(-c2c(Cl)cc3c(O)ncnc3c2F)cc1O [Compound 89] | < 7.00
CC(C)c1ncc(-c2cc(C(F)(F)F)c3cc(F)ccc3n2)cc1O [Compound 52] | < 7.00
CC(C)c1c(O)cc(-c2ccc3ncccc3c2F)cc1O [Compound 10] | 7.48
COc1cc2ncccc2cc1-c1cc(O)c(C(C)C)c(O)c1 [Compound 21] | < 7.00
CC(C)c1c(O)cc(-c2ccnc3ccc(F)cc23)cc1O [Compound 4] | < 7.00
CC(C)c1c(O)cc(-c2cnc3c(F)c(F)ccc3c2)cc1O [Compound 45] | 7.41
CC(C)c1c(O)cc(Oc2ccccc2)cc1O [Compound 132, 2-isopropyl-5-phenoxybenzene-1,3-diol] | < 6.40
CC(C)c1c(O)cc([S+]([O-])c2ccccc2)cc1O (centres unmarked) [Compound 130, 2-isopropyl-5-(phenylsulfinyl) benzene-1,3-diol] | < 6.40
CC(C)c1ncc(-c2cnc3c(F)cc(N)cc3c2)cc1O [Compound 53] | < 7.00
CC(C)c1c(O)cc(-c2nccc3cccnc23)cc1O [Compound 44] | < 7.00
COc1cc(-c2cnc(C(C)C)c(O)c2)cc2cccnc12 [Compound 69] | < 7.00
CC(C)c1c(O)cc(-c2cc(N)c3ccccc3n2)cc1O [Compound 24] | < 7.00
CC(C)c1ncc(-c2cc(F)c3ncccc3c2F)cc1O [Compound 63] | < 7.00
CC(C)c1nc2c(cc1O)CC(c1ccccc1)O2 (centres unmarked) [Compound 127, 6-isopropyl-2-phenyl-2H,3H-furo[2,3-b]pyridin-5-ol] | < 7.00
CC(C)c1ncc(-c2cc3cccnc3cc2F)cc1O [Compound 58] | < 7.00
COc1ccc2ccc(-c3cnc(C(C)C)c(O)c3)cc2n1 [Compound 78] | < 7.00
CC(C)c1c(O)cc(-c2cc(F)c3nccnc3c2)cc1O [Compound 36] | < 7.00
COc1cc2ncccc2cc1-c1cnc(C(C)C)c(O)c1 [Compound 72] | < 7.00
CC(C)c1ncc(-c2ccc3nccc(F)c3c2)cc1O [Compound 59] | < 7.00
CC(C)c1onc(/C=C/c2ccccc2)c1O [Compound 109, 5-isopropyl-3-[(E)-2-phenylethenyl]-1,2-oxazol-4-ol] | < 7.00
CC(C)c1c(O)cc(-c2cccc3ncccc23)cc1O [Compound 20] | < 7.00
CC(C)c1c(O)cc(-c2cncc3ccc(F)cc23)cc1O [Compound 32] | < 7.00
COc1cc(/C=C/c2ccccc2)cc(O)c1C(C)C [Compound 137] | > 8.10
CC(C)c1ncc(-c2cccc3ccc(C(=O)O)nc23)cc1O [Compound 76] | < 7.00
CC(C)c1c(O)cc(S(=O)(=O)c2ccccc2)cc1O [Compound 131, 2-isopropyl-5-(phenylsulfonyl)benzene-1,3-diol] | < 6.40
Cc1cnc2ccc(-c3cc(O)c(C(C)C)c(O)c3)cc2c1 [Compound 26] | < 7.00
CC(C)c1c(O)cc(-c2cccc3ccc(C(=O)O)nc23)cc1O [Compound 25] | < 7.00

SMILES | pEC50
CC(C)c1c(O)cc(-c2ccc3nccnc3c2)cc1O [Compound 40] | < 7.00
FC(F)(F)c1ccc(Nc2nccc(-c3cccc(Cl)c3)n2)cc1 [Reference, reference compound] | 7.77
CC(C)c1c(O)cc(-c2cc(O)cc3cccnc23)cc1O [Compound 15] | < 7.00
CC(C)c1c(O)cc(-c2cnc3ccc(F)cc3c2)cc1O [Compound 11] | < 7.00
CC(C)c1c(O)cc(-c2cc3ccccc3nc2C#N)cc1O [Compound 28] | < 7.00
CC(C)c1c(O)cc(-c2cc3cnccc3cc2F)cc1O [Compound 34] | < 7.00
CC(C)c1ncc(-c2ccc3nccnc3c2)cc1O [Compound 91] | < 7.00
CC(C)c1ncc(-c2ccnc3c(F)cccc23)cc1O [Compound 54] | < 7.00
CC(C)c1ncc(-c2cc(F)c3ncccc3c2)cc1O [Compound 57] | < 7.00
CC(C)c1ncc(-c2ccnc3c(Cl)cccc23)cc1O [Compound 68] | < 7.00
Cc1ccnc2c(-c3cnc(C(C)C)c(O)c3)ccnc12 [Compound 94] | < 7.00
CC(C)c1ncc(-c2nccc3cccnc23)cc1O [Compound 95] | < 7.00
CC(C)c1ncc(-c2cnc3c(F)c(F)ccc3c2)cc1O [Compound 96] | < 7.00
CC(C)c1ncc(-c2ccc3ncccc3c2F)cc1O [Compound 61] | < 7.00
CC(C)c1c(O)cc(-c2cc3cccnc3cc2F)cc1O [Compound 7] | < 7.00
CNc1ccnc2ccc(-c3cc(O)c(C(C)C)c(O)c3)cc12 [Compound 16] | < 7.00
CC(C)c1c(O)cc(-c2ccc3cc(F)ccc3n2)cc1O [Compound 9] | 7.68
CC(C)c1ncc(/C=C/c2ccccn2)cc1O [Compound 136] | < 7.00
CC(C)c1ncc(/C=C/c2ccccc2)cc1N [Compound 117, 2-isopropyl-5-[(E)-2-phenylethenyl]pyridin-3-amine] | < 7.00
CC(C)n1c(O)cc(/C=C/c2ccccc2)cc1=O [Compound 105, (E)-6-hydroxy-1-isopropyl-4-styrylpyridin-2(1H)-one] | < 6.40
CC(C)c1c(O)cc(Sc2ccccc2)cc1O [Compound 129, 2-isopropyl-5-(phenylthio) benzene-1,3-diol] | < 6.40
CC(C)c1c(O)cc(-c2cnc3c(F)cc(N)cc3c2)cc1O [Compound 2] | < 7.00
CC(C)c1ncc(-c2ncnc3ccccc23)cc1O [Compound 92] | < 7.00
CC(C)c1c(O)cc(-c2cnc3c(C(F)(F)F)cccc3c2)cc1O [Compound 51] | 7.05
CC(C)c1c(O)cc(-c2cc(F)c3ncccc3c2F)cc1O [Compound 12] | < 7.00
Cc1cnc2ccc(-c3cnc(C(C)C)c(O)c3)cc2c1 [Compound 77] | < 7.00
